The values below come from ChEMBL document CHEMBL4428109, “Structure-activity relationship studies of non-carboxylic acid peroxisome proliferator-activated receptor α/δ (PPARα/δ) dual agonists” (Bioorg Med Chem, 2016).

The source made the active and inactive calls. No cut-off for these calls is given here.

Assay type in all cases: cell-based
Assay [1] addresses T1, Peroxisome proliferator-activated receptor delta (Homo sapiens, UniProt Q03181).
T1 sequence (Q03181 whole entry): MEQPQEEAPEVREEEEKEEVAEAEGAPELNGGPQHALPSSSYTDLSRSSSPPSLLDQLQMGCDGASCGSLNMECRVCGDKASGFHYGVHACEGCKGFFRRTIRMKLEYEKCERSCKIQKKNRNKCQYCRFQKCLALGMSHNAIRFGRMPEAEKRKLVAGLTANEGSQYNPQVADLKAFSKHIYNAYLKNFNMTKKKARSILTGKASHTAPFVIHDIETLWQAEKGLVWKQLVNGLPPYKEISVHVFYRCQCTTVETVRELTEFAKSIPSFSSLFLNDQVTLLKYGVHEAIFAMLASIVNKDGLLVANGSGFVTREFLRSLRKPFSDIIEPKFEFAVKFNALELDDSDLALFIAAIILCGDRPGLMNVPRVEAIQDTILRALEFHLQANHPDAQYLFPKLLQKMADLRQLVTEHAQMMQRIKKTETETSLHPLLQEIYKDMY
As to the kind of experiment: Agonist activity at N-terminal Gal4 fused human PPARdelta LBD transfected in HEK293 cells after 24 hrs by luciferase reporter gene assay.

Assay [2] addresses T2, Peroxisome proliferator-activated receptor gamma (Homo sapiens) (UniProt P37231).
T2 sequence (whole entry): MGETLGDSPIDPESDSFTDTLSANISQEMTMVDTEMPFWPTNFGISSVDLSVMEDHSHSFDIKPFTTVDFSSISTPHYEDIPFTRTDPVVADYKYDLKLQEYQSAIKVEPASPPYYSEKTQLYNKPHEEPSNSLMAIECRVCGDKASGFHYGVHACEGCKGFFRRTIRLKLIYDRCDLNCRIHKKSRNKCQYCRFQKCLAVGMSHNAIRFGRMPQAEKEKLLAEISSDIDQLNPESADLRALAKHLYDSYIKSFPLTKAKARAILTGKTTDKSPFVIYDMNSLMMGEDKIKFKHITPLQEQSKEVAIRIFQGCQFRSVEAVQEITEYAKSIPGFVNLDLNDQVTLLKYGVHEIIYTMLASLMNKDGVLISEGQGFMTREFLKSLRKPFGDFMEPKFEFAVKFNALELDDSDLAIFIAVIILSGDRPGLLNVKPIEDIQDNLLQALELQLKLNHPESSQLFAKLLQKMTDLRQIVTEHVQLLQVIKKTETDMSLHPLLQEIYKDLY
As to the kind of experiment: Agonist activity at N-terminal Gal4 fused human PPARgamma LBD transfected in HEK293 cells at < 10 uM after 24 hrs by luciferase reporter gene assay.

Assay [3] addresses T3, Peroxisome proliferator-activated receptor alpha (Homo sapiens, UniProt Q07869).
T3 sequence (Q07869 whole entry): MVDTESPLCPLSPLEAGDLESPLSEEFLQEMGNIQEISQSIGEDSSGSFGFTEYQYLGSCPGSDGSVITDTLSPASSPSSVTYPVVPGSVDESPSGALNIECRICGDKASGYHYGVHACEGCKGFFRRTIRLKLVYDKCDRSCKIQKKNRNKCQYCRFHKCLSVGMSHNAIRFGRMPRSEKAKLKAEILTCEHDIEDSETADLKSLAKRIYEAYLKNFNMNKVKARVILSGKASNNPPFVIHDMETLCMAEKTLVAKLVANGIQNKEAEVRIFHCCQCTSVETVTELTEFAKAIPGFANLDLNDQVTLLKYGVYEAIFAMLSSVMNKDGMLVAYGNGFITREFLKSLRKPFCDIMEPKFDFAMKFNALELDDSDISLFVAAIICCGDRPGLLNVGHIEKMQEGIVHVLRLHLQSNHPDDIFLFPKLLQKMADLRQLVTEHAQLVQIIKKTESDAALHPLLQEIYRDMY
The assay can be described thus: Agonist activity at N-terminal Gal4 fused human PPARalpha LBD transfected in HEK293 cells after 24 hrs by luciferase reporter gene assay.

In assay [4] the target is T4, Peroxisome proliferator-activated receptor alpha (Homo sapiens) (UniProt Q07869).
T4 sequence (whole entry): T3 sequence (Q07869 whole entry)
The assay can be described thus: Agonist activity at N-terminal Gal4 fused human PPARalpha LBD transfected in HEK293 cells after 24 hrs by luciferase reporter gene assay relative to GW7647. Background: Reporter assays use an easily measured gene product as a stand-in for the process of interest.

Assay [5] concerns the target T5, Peroxisome proliferator-activated receptor delta (Homo sapiens) (UniProt Q03181).
T5 sequence (whole entry): T1 sequence (Q03181 whole entry)
The assay can be described thus: Agonist activity at N-terminal Gal4 fused human PPARdelta LBD transfected in HEK293 cells after 24 hrs by luciferase reporter gene assay relative to GW501516.

For assay [6], the target named is T4, Peroxisome proliferator-activated receptor alpha (Homo sapiens). As to the kind of experiment: Agonist activity at N-terminal Gal4 fused human PPARalpha LBD transfected in HEK293 cells at < 10 uM after 24 hrs by luciferase reporter gene assay.
Assay [7] deals with T5, Peroxisome proliferator-activated receptor delta (Homo sapiens). The assay can be described thus: Agonist activity at N-terminal Gal4 fused human PPARdelta LBD transfected in HEK293 cells at < 10 uM after 24 hrs by luciferase reporter gene assay.

For orientation: EC50 means the concentration giving half of the maximal effect. Consider `COC(=O)NC(C)c1nc(-c2ccc(Oc3ccc(OCc4ccccc4)cc3)cc2)no1` (centres undefined), for which the EC50 in assay [1] amounted to 290 nM; in assay [3], 100 nM. Moreover, in assay [2], the outcome was inactive. The Emax was 10 to 40% in assay [4] and 5 to 15% in assay [5].

In the case of `CC(NC(=O)C(F)(F)F)c1nc(-c2ccc(Oc3ccc(OCc4ccccc4)cc3)cc2)no1` (centres undefined), the EC50 in assay [1] was 150 nM; in assay [3], 100 nM. Besides, the result in assay [2] was inactive. Moreover, the Emax in assay [4] fell in the range of 10 to 40%; in assay [5], 5 to 15%.

Consider `CC(N)c1nc(-c2ccc(Oc3ccc(OCc4ccccc4)cc3)cc2)no1` (centres undefined), for which the outcome in assay [6] was inactive.

With `CC(NC(=O)C(F)(F)F)c1nc(-c2ccc(Oc3ccc(O)cc3)cc2)no1` (centres undefined), the result in assay [6], in assay [7] and in assay [2] was inactive.

Consider `COC(=O)NC(C)c1nc(-c2ccc(Oc3ccc(O)cc3)cc2)no1` (centres undefined), for which the result in assay [6], in assay [7] and in assay [2] was inactive.

For `CC(NC(=O)OC(C)(C)C)c1nc(-c2ccc(Oc3ccc(OCc4ccccc4)cc3)cc2)no1` (centres undefined), the outcome in assay [6] was inactive.

With `CC(=O)NCc1nc(-c2ccc(Oc3ccc(OCc4ccccc4)cc3)cc2)no1`, the result in assay [6], in assay [7] and in assay [2] was inactive.

On to `CCC(NC(C)=O)c1nc(-c2ccc(Oc3ccc(OCc4ccccc4)cc3)cc2)no1` (centres undefined), for which the EC50 in assay [1] was 110 nM; in assay [3], 130 nM. In assay [2], the result was inactive. For the same molecule, the Emax in assay [4] was 10 to 40%; in assay [5] it was 5 to 15%.

In the case of `CC(=O)N[C@H](C)c1nc(-c2ccc(Oc3ccc(OCc4ccccc4)cc3)cc2)no1`, the result in assay [6] and in assay [7] was inactive. For the same molecule, in assay [4], the Emax was in the range of 10 to 40%.

For the molecule `CC(=O)NC(C)(C)c1nc(-c2ccc(Oc3ccc(OCc4ccccc4)cc3)cc2)no1`, the result in assay [6], in assay [7] and in assay [2] was inactive.

Take `CC(=O)N(C)Cc1nc(-c2ccc(Oc3ccc(OCc4ccccc4)cc3)cc2)no1`: the outcome in assay [6], in assay [7] and in assay [2] was inactive.

Take `CC(=O)N[C@@H](C)c1nc(-c2ccc(Oc3ccc(OCc4ccccc4)cc3)cc2)no1`: the EC50 in assay [1] came out at 23 nM; in assay [3], 17 nM. Besides, the results for the Emax in assay [4] and in assay [5] were 10 to 40% and 5 to 15%, respectively.
